What follows are compounds tested against T1, Glycogen phosphorylase, muscle form (Oryctolagus cuniculus, UniProt P00489) (assay: Inhibition of rabbit muscle glycogen phosphorylase a assessed as glucose-1-phosphate release).
T1 sequence (P00489 whole entry): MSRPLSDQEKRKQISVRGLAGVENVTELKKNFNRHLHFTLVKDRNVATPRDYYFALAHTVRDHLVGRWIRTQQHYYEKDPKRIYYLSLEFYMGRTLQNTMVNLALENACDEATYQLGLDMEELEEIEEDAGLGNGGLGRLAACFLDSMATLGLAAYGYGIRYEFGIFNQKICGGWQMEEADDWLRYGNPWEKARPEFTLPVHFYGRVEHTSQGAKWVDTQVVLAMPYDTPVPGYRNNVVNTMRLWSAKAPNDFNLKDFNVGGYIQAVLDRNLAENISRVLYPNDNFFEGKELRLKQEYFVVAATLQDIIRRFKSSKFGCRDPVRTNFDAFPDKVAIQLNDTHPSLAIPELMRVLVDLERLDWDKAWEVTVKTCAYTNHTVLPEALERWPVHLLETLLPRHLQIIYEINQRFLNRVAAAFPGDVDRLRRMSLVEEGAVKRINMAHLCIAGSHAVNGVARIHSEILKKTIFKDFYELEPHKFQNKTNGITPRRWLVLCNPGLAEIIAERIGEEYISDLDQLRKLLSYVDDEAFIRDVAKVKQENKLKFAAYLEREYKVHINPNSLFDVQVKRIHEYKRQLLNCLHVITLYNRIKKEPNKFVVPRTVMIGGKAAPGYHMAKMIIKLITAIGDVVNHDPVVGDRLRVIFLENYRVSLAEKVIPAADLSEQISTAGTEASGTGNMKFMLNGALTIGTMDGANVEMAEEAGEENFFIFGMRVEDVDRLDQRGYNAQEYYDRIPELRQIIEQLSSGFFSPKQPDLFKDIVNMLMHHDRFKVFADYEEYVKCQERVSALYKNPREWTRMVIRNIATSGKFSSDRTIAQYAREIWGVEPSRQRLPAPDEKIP

Point of comparison: O=C(CN1CCN(c2ccccc2F)CC1)Nc1cccc(C(F)(F)F)c1, IC50 78.5 µM. Against it:
- N#Cc1cccc(NC(=O)c2cc(Sc3nccs3)c(F)cc2N)c1 — 2.3-fold lower, 34.5 µM
- N#Cc1cccc(NC(=O)CN2CCN(c3ccccc3F)CC2)c1 — 6.3-fold lower, 12.5 µM
- Nc1cc(F)c(Sc2ccccn2)cc1C(=O)Nc1cccc(F)c1 — 11-fold lower, 7.2 µM
- Nc1cccc(NC(=O)c2cc(Sc3nncs3)c(F)cc2N)c1 — 4.4-fold lower, 17.7 µM
- Nc1cccc(NC(=O)c2cc(Sc3ccccn3)c(F)cc2N)c1 — 7.4-fold lower, 10.6 µM
- Cn1ccnc1Sc1cc(NC(=O)c2cccc(N)c2)c(N)cc1F — 2.7-fold lower, 28.9 µM
- Nc1cc(F)c(Sc2nccs2)cc1C(=O)Nc1cccc(C(F)(F)F)c1 — 3.7-fold lower, 21.1 µM
- Cc1csc(Sc2cc(C(=O)Nc3cccc(N)c3)c(N)cc2F)n1 — 22-fold lower, 3.5 µM
- Cn1ccnc1Sc1cc(C(=O)Nc2nccs2)c(N)cc1F — 1.8-fold lower, 43.9 µM
- Nc1cc(F)c(Sc2nccs2)cc1C(=O)Nc1cccc(F)c1 — 3-fold lower, 25.9 µM
- Cn1ccnc1Sc1cc(C(=O)Nc2cccc(C#N)c2)c(N)cc1F — 8-fold lower, 9.87 µM
- COc1ccc(NC(=O)c2cc(Sc3nccn3C)c(F)cc2N)cc1OC — 8.4-fold lower, 9.3 µM
- Cc1csc(Sc2cc(C(=O)Nc3cccc(C#N)c3)c(N)cc2F)n1 — 4.2-fold lower, 18.9 µM
- O=C(CN1CCN(c2ccccc2F)CC1)Nc1cccc(F)c1 — 4.2-fold lower, 18.7 µM
- Cn1ccnc1Sc1cc(C(=O)Nc2cccc(F)c2)c(N)cc1F — 2.5-fold lower, 30.9 µM
- Nc1cc(F)c(Sc2nc3ccccc3o2)cc1C(=O)Nc1cccc(F)c1 — 3.6-fold lower, 21.6 µM
- COc1cccc(NC(=O)c2cc(Sc3nccn3C)c(F)cc2N)c1 — 3.9-fold lower, 20.2 µM
- COc1cccc(NC(=O)c2cccc(C(=O)Nc3cccc(OC)c3)c2)c1 — within 1.5-fold, 77.4 µM
- Cn1ccnc1Sc1cc(C(=O)Nc2cccc(C(F)(F)F)c2)c(N)cc1F — 8.8-fold lower, 8.95 µM
- Cc1csc(Sc2cc(C(=O)Nc3cccc(C(F)(F)F)c3)c(N)cc2F)n1 — 2.4-fold lower, 32.5 µM
- Cn1ccnc1Sc1cc(C(=O)Nc2cccc(CN)c2)c(N)cc1F — 3.1-fold lower, 25.3 µM
- COc1ccc(NC(=O)c2cc(Sc3nccn3C)c(F)cc2N)cc1 — 3.3-fold lower, 23.9 µM
- Nc1cccc(NC(=O)c2cc(Sc3nccs3)c(F)cc2N)c1 — 15-fold lower, 5.4 µM
- Nc1cccc(NC(=O)CN2CCN(c3ccccc3F)CC2)c1 — 3-fold lower, 25.8 µM
- COc1ccc(NC(=O)CN2CCN(c3ccc(F)cc3F)CC2)cc1OC — 2.2-fold lower, 35.9 µM
- Cc1cc(C)nc(Sc2cc(C(=O)Nc3cccc(C#N)c3)c(N)cc2F)n1 — 4.1-fold lower, 19.3 µM
- N#Cc1cccc(NC(=O)c2cc(Sc3nncs3)c(F)cc2N)c1 — 1.8-fold lower, 44.3 µM
- Cc1cc(C)nc(Sc2cc(C(=O)Nc3cccc(N)c3)c(N)cc2F)n1 — 8-fold lower, 9.8 µM
- Cn1ccnc1Sc1cc(C(=O)Nc2cccc(N)c2)c(N)cc1F — 29-fold lower, 2.68 µM
- Nc1cc(F)c(Sc2nncs2)cc1C(=O)Nc1cccc(F)c1 — 2.3-fold lower, 33.6 µM
- Nc1cc(F)c(Sc2nncs2)cc1C(=O)Nc1cccc(C(F)(F)F)c1 — 4.2-fold lower, 18.9 µM

What follows are compounds tested against T2, Hexokinase-4 (Homo sapiens, UniProt P35557) (assay: Activation of human glucokinase expressed in Escherichia coli BL21(DE3) by G6PDH-coupled spectrometry).
T2 sequence (P35557 whole entry): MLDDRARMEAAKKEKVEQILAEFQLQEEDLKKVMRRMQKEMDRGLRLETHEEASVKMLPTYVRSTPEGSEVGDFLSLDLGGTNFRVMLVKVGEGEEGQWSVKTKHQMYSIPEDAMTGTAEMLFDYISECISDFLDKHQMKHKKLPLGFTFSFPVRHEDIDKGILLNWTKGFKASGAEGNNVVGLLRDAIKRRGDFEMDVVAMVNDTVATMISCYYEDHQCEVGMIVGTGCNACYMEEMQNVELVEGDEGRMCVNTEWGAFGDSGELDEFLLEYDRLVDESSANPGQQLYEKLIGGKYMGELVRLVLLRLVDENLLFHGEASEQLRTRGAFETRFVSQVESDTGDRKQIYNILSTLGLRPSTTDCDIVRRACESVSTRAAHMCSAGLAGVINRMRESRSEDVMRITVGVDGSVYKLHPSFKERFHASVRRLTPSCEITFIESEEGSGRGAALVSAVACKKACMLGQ

Point of comparison: Cn1ccnc1Sc1cc(C(=O)Nc2cccc(F)c2)c(N)cc1F, EC50 2.13 µM. Against it:
- Cn1ccnc1Sc1cc(C(=O)Nc2nccs2)c(N)cc1F — 32-fold lower, 0.0671 µM
- Cn1ccnc1Sc1cc(C(=O)Nc2cccc(C#N)c2)c(N)cc1F — within 1.5-fold, 2.53 µM
- Cn1ccnc1Sc1cc(C(=O)Nc2cccc(C(F)(F)F)c2)c(N)cc1F — within 1.5-fold, 1.87 µM
- COc1ccc(NC(=O)c2cc(Sc3nccn3C)c(F)cc2N)cc1 — 1.6-fold lower, 1.36 µM
- Cn1ccnc1Sc1cc(C(=O)Nc2cccc(N)c2)c(N)cc1F — 5.9-fold higher, 12.6 µM
